Where no end group is shown, it is not given here.
System: blood-brain barrier (BBB)
Format: in vivo, male CD-1 mice

## CNC[C@H](O)c1ccc(O)c(O)c1 [Epinephrine]
Epinephrine 40 nmol/mouse in the iv injection, 8 week old mice
  effect on I-Ghr uptake across the BBB: no effect

## I-Ghr: Human ghrelin radioactively labeled with 131I by the chloramine-T method, purified by reverse-phase HPLC (GSSFLSPEHQRVQQRKESKKPPAKLQPR; ends and bridges not checked; also: 131I radiolabel, site not given here; UniProt Q9UBU3 24-51, looked up)
mouse, in vivo, iv
  effect of 48 h fasting on Ki of I-Ghr vs fed animals: arithmetic increase

## triolein
Triolein 7.2 mg/mouse iv with I-Ghr, 8 week old mice
  enhancement of I-Ghr transport across the BBB: over 70%
